Experimental data: patent publication US9801872B2, “Pyridinyl and fused pyridinyl triazolone derivatives” (Takeda Pharmaceutical Company Limited, priority 2013, dated 2017)

Target: human BTK (Homo sapiens (Human), UniProt Q06187)
Assay: BTK inhibition: BTK-mediated phosphorylation of FAM-labeled substrate 5-FAM-[…]-NH2 (Caliper LC-3000)
Format: biochemical
Settings: residues 382 to 659 of human BTK; 60 minutes at room temperature; pIC50 = -log(IC50), IC50 molar
Text: The activity of compounds as BTK inhibitors may be determined by a variety of methods, including in vitro and in vivo methods.
This construct engineers an in-frame translational fusion with the Glutathione-S-Transferase (GST) protein for use in affinity purification. The fusion protein derived from this construct contains a protease recognition sequence to liberate the BTK from the GST affinity tag. High-titer baculoviral stocks, generated using the Bac-to-Bac® system (Invitrogen), are used to express the recombinant protein in Spodoptera frugiperda Sf9 cells in 10 L Wave bags. Recombinant proteins are isolated from cellular extracts by passage over Glutathione Sepharose 4B (GE Healthcare) and the BTK moiety is released from the GST affinity tag by treatment with PreScission protease. The BTK recombinant protein is further purified by size exclusion chromatography (HiLoad 16/60 Superdex 200, GE Healthcare) in a buffer containing 20 mM Hepes (pH 7.4), 50 mM NaCl, 10 mM MgCl2, 0.25 mM TCEP and 0.1 mM EDTA. The purity of the fractions is assessed by SDS PAGE and the peak protein fractions are pooled and concentrated using Amicon Ultra-15 Centrifugal Filter Devices (Millipore).
The inhibitory properties of compounds relative to BTK is determined using a black 384-well-plate format in a buffer which contains 50 mM Hepes, 10 mM NaCl, 10 mM MgCl2, 0.2 mM EDTA, 0.01% Brij35®, 1 mM DTT, and 0.1 mg/mL BSA at pH 7.3. The test compound is prepared in DMSO using 2-fold serial dilutions for 11 data points, which are added to the buffer so that each dilution contains 3% DMSO. […] The reaction mixtures are incubated at room temperature for 60 minutes and then quenched by adding 25 μL of 50 mM EDTA. To quantify the fluorescent-labeled substrate and product following reaction, the test plate is loaded on a Caliper LC-3000, which measures percent of conversion by microfluidic-based separation.
The compounds were tested in accordance with the assay described on page 42 of the specification.

Sequence of human BTK (Q06187 382-659): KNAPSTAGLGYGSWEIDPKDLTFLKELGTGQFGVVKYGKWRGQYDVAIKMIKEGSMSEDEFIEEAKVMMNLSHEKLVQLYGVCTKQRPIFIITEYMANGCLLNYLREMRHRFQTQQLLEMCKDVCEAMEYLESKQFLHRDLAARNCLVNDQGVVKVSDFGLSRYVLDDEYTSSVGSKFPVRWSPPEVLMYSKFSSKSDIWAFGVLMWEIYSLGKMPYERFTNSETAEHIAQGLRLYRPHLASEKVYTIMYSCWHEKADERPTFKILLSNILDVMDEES

Row | Structure (SMILES) | BTK Inhibition (pIC50)
1 | C=CC(=O)N1CCC[C@H]1COc1nc(-c2n[nH]c(=O)[nH]2)cc2ccccc12 [Example 7, (S)-3-(1-((1-acryloylpyrrolidin-2-yl)methoxy)isoquinolin-3-yl)-1H-1,2,4-triazol-5(4H)-one] | 8.0
2 | O=C(CCl)N1CC[C@H](Nc2nc(-c3n[nH]c(=O)[nH]3)cc3ccccc23)C1 [Example 34, (S)-5-(1-((1-(2-chloroacetyl)pyrrolidin-3-yl)amino)isoquinolin-3-yl)-2,4-dihydro-3H-1,2,4-triazol-3-one] | >8.6
